Laboratory results from ChEMBL document CHEMBL1201862, “PubChem BioAssay data set” (2004).
Activity calls are given as the source filed them.

What was measured:
[1] = target: SWI/SNF-related matrix-associated actin-dependent regulator of chromatin subfamily A member 2 (Homo sapiens, UniProt P51531); assay: Luminescence-based cell-based high throughput dose response assay to identify activators of the function of SWI/SNF related, matrix associated, actin dependent regulator of chromatin, subfamily a, member 2 (SMARCA2, BRM).; type: functional
[2] = Counterscreen for activators of the function of SWI/SNF related, matrix associated, actin dependent regulator of chromatin, subfamily a, member 2 (SMARCA2, BRM): Luminescence-based cell-based high throughput dose response assay to identify non-selective compounds using the VP16 reporter assay.; type: functional
[3] = target: T1, Aminopeptidase N (Plasmodium falciparum FcB1/Columbia, UniProt O96935); assay: malaria alanyl aminopeptidase activity blockers – biochemical, fluorogenic H-Leu-NHMec substrate, 1536-well (AID 1445); parameters: species or system Plasmodium falciparum 3D7, 3D7
T1 sequence (O96935 whole entry): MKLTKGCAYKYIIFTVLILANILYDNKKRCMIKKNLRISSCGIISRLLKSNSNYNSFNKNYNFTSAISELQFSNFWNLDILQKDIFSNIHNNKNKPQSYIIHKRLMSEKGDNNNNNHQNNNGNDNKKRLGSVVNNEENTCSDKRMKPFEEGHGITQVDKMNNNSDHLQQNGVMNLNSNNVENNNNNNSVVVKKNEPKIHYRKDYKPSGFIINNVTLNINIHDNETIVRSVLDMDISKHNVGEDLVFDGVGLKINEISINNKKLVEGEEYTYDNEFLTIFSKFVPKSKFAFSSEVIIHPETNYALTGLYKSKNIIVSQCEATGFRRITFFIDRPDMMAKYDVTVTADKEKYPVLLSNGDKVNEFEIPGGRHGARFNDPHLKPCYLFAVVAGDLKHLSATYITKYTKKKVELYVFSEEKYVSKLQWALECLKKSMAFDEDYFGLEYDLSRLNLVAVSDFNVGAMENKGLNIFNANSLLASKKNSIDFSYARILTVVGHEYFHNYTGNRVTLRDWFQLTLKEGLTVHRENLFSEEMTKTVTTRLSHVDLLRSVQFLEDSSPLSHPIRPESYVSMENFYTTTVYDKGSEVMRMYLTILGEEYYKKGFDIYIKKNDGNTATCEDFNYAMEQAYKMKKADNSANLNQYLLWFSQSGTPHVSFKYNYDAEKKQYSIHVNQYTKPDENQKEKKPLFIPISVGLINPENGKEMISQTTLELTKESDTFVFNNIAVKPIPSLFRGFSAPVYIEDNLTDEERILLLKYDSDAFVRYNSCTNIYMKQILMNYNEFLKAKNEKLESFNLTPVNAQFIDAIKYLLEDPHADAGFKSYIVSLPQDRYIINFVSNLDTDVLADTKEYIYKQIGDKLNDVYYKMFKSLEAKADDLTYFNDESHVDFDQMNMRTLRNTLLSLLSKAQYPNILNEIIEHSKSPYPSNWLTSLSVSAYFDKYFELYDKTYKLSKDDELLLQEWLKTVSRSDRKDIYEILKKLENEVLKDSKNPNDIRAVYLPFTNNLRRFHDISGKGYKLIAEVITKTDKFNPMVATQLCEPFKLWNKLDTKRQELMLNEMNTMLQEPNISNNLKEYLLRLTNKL

[4] = target: Genome polyprotein (dengue virus type 2, UniProt P29990); assay: flavivirus cap methylation enzyme inhibition – biochemical, confirmation dose response, primary screen (AID 588689); type: functional
[5] = target: T2, Corticotropin-releasing factor receptor 2/Corticotropin-releasing factor-binding protein (Homo sapiens, UniProt P24387+Q13324); assay: Dose Response confirmation of uHTS hits for small molecule antagonists of the CRF-binding protein and CRF-R2 receptor complex.; type: functional; details: read-out: IC50_Mean
T2 sequence (Q13324 whole entry): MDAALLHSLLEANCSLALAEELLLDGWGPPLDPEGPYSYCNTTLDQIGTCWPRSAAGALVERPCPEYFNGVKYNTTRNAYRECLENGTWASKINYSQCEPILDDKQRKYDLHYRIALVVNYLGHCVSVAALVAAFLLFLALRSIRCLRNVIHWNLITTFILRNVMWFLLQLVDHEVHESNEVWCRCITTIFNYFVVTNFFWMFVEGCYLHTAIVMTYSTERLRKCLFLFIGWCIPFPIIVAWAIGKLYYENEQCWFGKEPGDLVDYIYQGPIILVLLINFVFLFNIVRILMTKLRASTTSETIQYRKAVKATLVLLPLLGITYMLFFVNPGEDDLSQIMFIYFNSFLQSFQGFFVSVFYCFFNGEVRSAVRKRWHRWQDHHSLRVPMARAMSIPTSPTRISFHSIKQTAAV
T2 sequence (P24387 whole entry): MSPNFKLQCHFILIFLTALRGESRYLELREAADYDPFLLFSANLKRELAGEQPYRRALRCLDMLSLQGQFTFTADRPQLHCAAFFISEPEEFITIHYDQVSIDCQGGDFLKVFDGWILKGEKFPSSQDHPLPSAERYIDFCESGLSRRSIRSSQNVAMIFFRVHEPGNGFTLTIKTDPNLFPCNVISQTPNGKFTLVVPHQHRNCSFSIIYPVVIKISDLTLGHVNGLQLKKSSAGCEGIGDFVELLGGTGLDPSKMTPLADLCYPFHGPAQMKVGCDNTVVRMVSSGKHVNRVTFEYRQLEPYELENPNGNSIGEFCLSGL

[6] = target: T2, Corticotropin-releasing factor receptor 2/Corticotropin-releasing factor-binding protein; assay: activators of CRF receptor 2 with binding protein – uHTS hits, confirmation (AID 602473); type: functional; details: read-out: EC50_Mean
[7] = blockers of CRF-binding protein–CRF-R2 complex – cell-based, uHTS hits, 384-well, dose response (AID 651639); type: functional, Homo sapiens; details: read-out: IC50_Mean
[8] = target: T3, Long-chain-fatty-acid--AMP ligase FadD28 (Mycobacterium tuberculosis, UniProt P9WQ59); assay: Fluorescence polarization aasay to screen for inhibitors that compete for the binding of FadD28 to a bisubstrate Measured in Biochemical System Using Plate Reader - 2147-01_Inhibitor_Dose_CherryPick_Activity.; type: functional, Mycobacterium tuberculosis H37Rv
T3 sequence (P9WQ59 whole entry): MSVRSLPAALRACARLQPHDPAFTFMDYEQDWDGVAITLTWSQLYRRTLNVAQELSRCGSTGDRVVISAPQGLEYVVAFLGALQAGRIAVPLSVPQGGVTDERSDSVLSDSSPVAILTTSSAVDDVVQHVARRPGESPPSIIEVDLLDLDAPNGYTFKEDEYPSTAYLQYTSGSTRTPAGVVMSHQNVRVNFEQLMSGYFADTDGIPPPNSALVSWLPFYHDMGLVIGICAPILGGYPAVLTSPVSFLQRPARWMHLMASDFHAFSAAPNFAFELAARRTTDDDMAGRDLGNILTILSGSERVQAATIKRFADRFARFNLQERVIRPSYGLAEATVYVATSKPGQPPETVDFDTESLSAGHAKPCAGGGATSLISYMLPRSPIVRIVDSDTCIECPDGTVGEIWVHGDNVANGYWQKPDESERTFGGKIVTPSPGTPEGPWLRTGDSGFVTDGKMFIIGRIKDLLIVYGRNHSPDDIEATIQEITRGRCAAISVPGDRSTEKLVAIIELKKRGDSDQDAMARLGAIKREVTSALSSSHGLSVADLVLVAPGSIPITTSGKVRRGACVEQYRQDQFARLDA

[9] = Counterscreen for […] of the human trace amine associated receptor 1 (TAAR1): Fluorescence-based cell-based high throughput dose response assay to identify nonselective Ga16 agonists.; type: functional
[10] = target: T4, Trace amine-associated receptor 1 (Homo sapiens, UniProt Q96RJ0); assay: Fluorescence-based cell-based high throughput dose response assay to identify antagonists of the human trace amine associated receptor 1 (TAAR1).; type: functional
T4 sequence (Q96RJ0 whole entry): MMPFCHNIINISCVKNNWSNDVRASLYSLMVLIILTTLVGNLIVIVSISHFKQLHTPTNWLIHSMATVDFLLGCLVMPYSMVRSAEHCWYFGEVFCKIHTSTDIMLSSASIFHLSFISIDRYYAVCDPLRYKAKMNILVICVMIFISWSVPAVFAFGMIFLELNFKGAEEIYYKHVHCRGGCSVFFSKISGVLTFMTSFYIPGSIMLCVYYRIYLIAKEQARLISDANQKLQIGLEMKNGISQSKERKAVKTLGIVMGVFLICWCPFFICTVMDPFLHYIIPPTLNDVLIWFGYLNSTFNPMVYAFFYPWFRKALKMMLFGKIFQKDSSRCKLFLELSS

[11] = Counterscreen for antagonists of the human trace amine associated receptor 1 (hTAAR1): Fluorescence-based cell-based high throughput dose response assay to identify nonselective Ga16 antagonists.; type: functional
[12] = target: T4, Trace amine-associated receptor 1; assay: Counterscreen for antagonists of the human trace amine associated receptor 1 (hTAAR1): Fluorescence-based cell-based high throughput dose response assay to identify TAAR1 Agonists.; type: functional
[13] = cells; type: functional, cell-based
[14] = target: T4, Trace amine-associated receptor 1; assay: Fluorescence-based cell-based high throughput dose response assay to identify agonists of the human trace amine associated receptor 1 (TAAR1).; type: functional
[15] = target: T4, Trace amine-associated receptor 1; assay: Counterscreen for agonists of the human trace amine associated receptor 1 (hTAAR1): Fluorescence-based cell-based high throughput dose response assay to identify hTAAR1 agonist that also desensitize TAAR1 receptor response.; type: functional
[16] = cells; type: functional, cell-based; remark: listed apart in the source
[17] = target: Mu-type opioid receptor (Homo sapiens, UniProt P35372); type: functional, cell-based;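 further: U2OS cells with beta-arrestin recruitment to OPRM1 by beta-gal complementation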
[18] = target: 5-hydroxytryptamine receptor 2A (Mus musculus, UniProt P35363); type: functional, cell-based;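 further: CHO-K1 cells with tagged receptor and beta-arrestin; agonist potency measured as compound-induced activation of the receptor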
Sequence of 5-hydroxytryptamine receptor 2A (P35363 whole entry): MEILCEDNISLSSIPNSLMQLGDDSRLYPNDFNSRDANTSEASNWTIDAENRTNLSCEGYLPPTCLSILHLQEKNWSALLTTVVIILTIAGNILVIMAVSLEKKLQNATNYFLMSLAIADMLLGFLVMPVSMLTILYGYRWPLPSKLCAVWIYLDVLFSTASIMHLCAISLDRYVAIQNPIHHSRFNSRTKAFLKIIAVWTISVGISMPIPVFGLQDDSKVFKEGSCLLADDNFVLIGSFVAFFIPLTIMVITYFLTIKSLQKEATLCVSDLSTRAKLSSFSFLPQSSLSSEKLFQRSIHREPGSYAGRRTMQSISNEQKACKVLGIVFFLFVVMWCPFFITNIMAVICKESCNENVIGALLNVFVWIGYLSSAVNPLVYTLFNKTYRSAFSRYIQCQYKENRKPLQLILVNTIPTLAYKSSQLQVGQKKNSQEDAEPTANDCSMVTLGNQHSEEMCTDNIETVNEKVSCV

Sequence of Mu-type opioid receptor (P35372 whole entry): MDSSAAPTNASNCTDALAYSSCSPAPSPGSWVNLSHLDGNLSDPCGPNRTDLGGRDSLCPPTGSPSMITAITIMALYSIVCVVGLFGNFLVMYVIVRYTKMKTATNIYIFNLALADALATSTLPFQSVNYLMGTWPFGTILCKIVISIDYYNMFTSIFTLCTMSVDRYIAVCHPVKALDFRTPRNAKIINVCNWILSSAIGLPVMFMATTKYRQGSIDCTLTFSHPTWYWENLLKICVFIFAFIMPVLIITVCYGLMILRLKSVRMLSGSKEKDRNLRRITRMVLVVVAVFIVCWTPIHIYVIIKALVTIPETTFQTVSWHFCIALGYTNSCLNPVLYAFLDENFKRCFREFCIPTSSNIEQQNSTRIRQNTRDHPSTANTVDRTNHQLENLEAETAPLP
Sequence of Genome polyprotein (P29990 2492-3391 limits assumed): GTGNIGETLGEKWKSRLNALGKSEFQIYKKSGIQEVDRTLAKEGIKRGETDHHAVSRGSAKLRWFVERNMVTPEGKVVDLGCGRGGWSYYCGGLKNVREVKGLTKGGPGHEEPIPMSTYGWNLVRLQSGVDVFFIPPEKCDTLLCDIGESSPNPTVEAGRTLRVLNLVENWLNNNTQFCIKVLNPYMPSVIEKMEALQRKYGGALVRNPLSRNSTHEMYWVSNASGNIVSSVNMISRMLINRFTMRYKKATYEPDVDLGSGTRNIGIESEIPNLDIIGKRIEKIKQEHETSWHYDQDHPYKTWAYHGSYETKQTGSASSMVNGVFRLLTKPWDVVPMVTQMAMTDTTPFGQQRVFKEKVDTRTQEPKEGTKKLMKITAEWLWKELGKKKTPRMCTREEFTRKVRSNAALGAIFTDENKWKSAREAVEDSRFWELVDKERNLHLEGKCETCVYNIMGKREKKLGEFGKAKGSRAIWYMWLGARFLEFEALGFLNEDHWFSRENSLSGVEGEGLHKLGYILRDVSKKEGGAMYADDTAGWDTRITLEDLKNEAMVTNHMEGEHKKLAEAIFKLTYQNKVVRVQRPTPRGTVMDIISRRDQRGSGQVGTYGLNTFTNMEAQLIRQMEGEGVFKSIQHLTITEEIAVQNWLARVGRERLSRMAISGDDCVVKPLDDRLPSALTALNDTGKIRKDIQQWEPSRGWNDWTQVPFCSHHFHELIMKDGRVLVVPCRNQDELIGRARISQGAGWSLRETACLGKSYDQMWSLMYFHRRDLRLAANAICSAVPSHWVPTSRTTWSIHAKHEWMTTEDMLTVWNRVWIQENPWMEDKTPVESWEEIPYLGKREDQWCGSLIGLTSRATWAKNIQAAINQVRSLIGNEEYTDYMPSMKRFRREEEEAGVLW
Sequence of SWI/SNF-related matrix-associated actin-dependent regulator of chromatin subfamily A member 2 (P51531 whole entry): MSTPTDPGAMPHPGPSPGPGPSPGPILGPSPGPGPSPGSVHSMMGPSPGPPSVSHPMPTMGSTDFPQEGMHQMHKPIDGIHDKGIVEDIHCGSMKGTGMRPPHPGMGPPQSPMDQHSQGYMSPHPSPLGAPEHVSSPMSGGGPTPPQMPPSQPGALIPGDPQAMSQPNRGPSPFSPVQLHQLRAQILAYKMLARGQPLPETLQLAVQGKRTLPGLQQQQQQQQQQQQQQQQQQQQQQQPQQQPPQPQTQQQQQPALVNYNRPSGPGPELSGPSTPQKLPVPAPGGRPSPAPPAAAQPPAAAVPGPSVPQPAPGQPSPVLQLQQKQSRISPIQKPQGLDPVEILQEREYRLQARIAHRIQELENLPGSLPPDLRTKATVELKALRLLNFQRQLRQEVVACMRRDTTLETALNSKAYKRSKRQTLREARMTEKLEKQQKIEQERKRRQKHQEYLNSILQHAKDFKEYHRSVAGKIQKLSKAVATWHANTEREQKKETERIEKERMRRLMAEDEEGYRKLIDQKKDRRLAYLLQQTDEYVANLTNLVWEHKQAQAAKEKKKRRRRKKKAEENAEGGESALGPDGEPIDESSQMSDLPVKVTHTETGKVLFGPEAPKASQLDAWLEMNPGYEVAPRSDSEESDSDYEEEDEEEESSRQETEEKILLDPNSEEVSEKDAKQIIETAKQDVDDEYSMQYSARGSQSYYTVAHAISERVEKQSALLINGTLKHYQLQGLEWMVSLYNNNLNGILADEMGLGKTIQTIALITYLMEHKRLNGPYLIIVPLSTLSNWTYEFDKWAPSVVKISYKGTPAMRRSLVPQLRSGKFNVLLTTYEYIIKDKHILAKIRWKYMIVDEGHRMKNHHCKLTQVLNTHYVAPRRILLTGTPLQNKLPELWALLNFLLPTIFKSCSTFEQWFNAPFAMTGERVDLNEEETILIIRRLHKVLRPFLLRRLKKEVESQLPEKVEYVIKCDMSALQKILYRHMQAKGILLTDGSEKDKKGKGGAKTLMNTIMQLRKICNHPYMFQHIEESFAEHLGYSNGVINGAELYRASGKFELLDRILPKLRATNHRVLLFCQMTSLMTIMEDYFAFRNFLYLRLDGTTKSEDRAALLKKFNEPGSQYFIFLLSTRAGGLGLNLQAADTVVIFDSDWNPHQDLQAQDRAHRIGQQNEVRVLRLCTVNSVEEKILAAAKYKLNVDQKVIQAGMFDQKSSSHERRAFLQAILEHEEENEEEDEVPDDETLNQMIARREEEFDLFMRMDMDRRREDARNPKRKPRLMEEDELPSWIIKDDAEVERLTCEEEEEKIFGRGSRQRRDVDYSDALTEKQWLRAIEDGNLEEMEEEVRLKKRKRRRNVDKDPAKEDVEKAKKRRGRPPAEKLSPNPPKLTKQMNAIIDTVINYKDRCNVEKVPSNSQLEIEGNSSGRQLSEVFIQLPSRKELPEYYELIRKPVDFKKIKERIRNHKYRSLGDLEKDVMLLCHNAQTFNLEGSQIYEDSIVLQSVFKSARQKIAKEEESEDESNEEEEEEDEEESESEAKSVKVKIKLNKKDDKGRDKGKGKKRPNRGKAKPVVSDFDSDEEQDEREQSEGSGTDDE

O=C(COC(=O)c1nc(Cl)c(Cl)c(Cl)c1Cl)NCc1ccccc1
EC50 [1]: > 91.1 µM (inactive) | EC50 [2]: > 91.1 µM (inactive)

C=CCOc1ccc(/C=C2\SC(=S)N(C(C(=O)O)c3ccccc3)C2=O)cc1 (stereo unspecified)
IC50 [3]: 33.8 µM (active) | IC50 [4]: 40.2 µM (active) | IC50 [5]: 4.06 µM (active) | EC50 [6]: 33.2 µM (active) | IC50 [7]: 14.7 µM (active) | AC50 [8]: 4.48 µM (active)

O=C1NC(=S)S/C1=C\c1cccc([N+](=O)[O-])c1
IC50 [5]: 16.7 µM (active) | EC50 [6]: 10.8 µM (active) | IC50 [7]: > 20 µM (inactive)

COc1ccc(-c2c(C#Cc3ccsc3)c3cc(-c4ccc(C(N)=O)cc4)ccc3n2C)cc1
EC50 [9]: > 29.9 µM (inactive) | IC50 [10]: 0.233 µM (active) | IC50 [11]: > 29.9 µM (inactive) | EC50 [12]: > 29.9 µM (inactive)

CCOC(=O)[C@]12CCC=C1N(Cc1ccc3c(c1)OCO3)C(=O)[C@H](CC(=O)NCCc1ccccc1OC)C2
IC50 [13]: > 29.9 µM (inactive) | EC50 [14]: 7.51 µM (active) | IC50 [15]: 6.46 µM (active) | EC50 [16]: > 29.9 µM (inactive)

COc1cccc(-c2nc(CN3CCN(C(=O)c4ccco4)CC3)c(C)o2)c1OC
EC50 [17]: 92.5 µM (inactive) | EC50 [18]: 20 µM (inactive)
